Experiments:
RyR1 = RyR1 (Oryctolagus cuniculus, UniProt P11716); assay: Lipid bilayer single channel recordings of purified RyR1; assay type: biochemical, rabbit; details: for increase in Po of RyR1 / Closed- maximally opened transitions (Hz) / Dwell time closed state / Dwell time open state / Po (+30 mV) / Close - maximally opened transitions (Hz): 3.0 μM cis Ca^2+
[1] = biological target: rabbit skeletal muscle ryanodine receptor Ca^2+ release channel (RyR1) (Oryctolagus cuniculus, UniProt P11716); assay: [^3H]ryanodine binding/displacement assay with SR membrane vesicles
SERCA1 [2] = biological target: T1, SERCA1 (Oryctolagus cuniculus, UniProt P04191); assay: ATP-dependent ^45Ca^2+ accumulation by longitudinal SR vesicles; assay type: biochemical, rabbit; details: 0 – 31.2 μM, 20 min at 37°C
[3] = system: C2C12 skeletal muscle myotubes; assay: Live-cell Ca^2+ imaging; assay type: cell-based, Mouse
[4] = Drug dissolved in ethanol/water; assay type: physicochemical; details: room temperature (22 °C), HPLC
SERCA1 [5] = biological target: T1, SERCA1; assay: SERCA1 ATPase activity; assay type: biochemical, rabbit
[6] = EFV daily dose of up to 600 mg/day, cited from earlier work
[7] = 6 μM, antiretroviral-naïve C2C12 myotubes
[8] = 3 μM, antiretroviral-naïve C2C12 cells

T1 sequence (P04191 1-994 isoform P04191-2): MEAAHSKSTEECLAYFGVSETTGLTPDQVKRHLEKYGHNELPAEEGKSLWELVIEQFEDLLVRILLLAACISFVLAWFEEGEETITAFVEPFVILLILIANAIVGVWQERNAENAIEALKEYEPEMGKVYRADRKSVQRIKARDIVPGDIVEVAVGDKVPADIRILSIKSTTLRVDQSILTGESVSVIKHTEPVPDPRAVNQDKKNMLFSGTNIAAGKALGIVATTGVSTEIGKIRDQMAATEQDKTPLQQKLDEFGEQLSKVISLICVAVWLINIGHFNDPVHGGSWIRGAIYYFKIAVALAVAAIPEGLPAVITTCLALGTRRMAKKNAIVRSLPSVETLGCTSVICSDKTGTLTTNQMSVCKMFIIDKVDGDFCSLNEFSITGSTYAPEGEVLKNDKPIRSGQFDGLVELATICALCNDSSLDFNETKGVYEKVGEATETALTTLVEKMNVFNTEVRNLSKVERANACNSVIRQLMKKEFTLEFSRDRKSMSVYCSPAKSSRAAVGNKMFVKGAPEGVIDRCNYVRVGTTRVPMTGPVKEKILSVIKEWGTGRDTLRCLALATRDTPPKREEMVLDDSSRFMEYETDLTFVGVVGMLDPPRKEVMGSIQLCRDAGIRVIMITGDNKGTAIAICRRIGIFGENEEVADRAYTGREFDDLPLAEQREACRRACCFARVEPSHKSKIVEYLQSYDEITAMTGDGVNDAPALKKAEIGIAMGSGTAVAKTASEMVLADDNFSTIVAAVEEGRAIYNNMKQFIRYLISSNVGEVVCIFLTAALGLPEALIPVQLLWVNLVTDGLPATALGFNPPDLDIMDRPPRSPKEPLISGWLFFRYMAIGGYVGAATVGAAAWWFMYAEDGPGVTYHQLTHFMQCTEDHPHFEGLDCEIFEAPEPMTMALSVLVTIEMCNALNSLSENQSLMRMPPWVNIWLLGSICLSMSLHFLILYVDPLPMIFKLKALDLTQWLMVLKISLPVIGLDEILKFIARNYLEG

O=C1Nc2ccc(Cl)cc2[C@@](C#CC2CC2)(C(F)(F)F)O1 [EFV, efavirenz]
time after which the channel went into an irreversible shut state (RyR1; 31.2 nM cis EFV (so in the source)): 90 s | increase in Po of RyR1 (RyR1; 240 nM cis EFV, within 15 sec): eight-fold | conductance of reduced conductance state R1 (RyR1; 2.5 μM cis EFV): 233 ± 15 pS | reduced conductance state R1, current amplitude (RyR1; 2.5 μM cis EFV): 33 % of maximum | duration of R1 state (RyR1; 2.5 μM cis EFV, +30 mV): ~ 375 msec | duration of R1 state (RyR1; 2.5 μM cis EFV, −30 mV): ~ 125 msec | conductance of reduced conductance state R2 (RyR1; 5.0 μM cis EFV): 479 ± 24 pS | Closed- maximally opened transitions (Hz) (RyR1; Efavirenz 2.50 μM cis): 1122 ±22 Hz | Dwell time closed state (RyR1; Efavirenz 2.50 μM cis): 1.38 ± 0.08 | Dwell time open state (RyR1; Efavirenz 2.50 μM cis): 0.74 ± 0.06 | Po (+30 mV) (RyR1; Efavirenz 2.50 μM cis): 0.22 ± 0.01 | Closed- maximally opened transitions (Hz) (RyR1; Efavirenz 5.00 μM cis): 1046 ±30 Hz | Dwell time closed state (RyR1; Efavirenz 5.00 μM cis): 0.56 ± 0.07 | Dwell time open state (RyR1; Efavirenz 5.00 μM cis): 1.01 ± 0.01 | Po (+30 mV) (RyR1; Efavirenz 5.00 μM cis): 0.59 ± 0.03 | Closed- maximally opened transitions (Hz) (RyR1; Efavirenz 12.50 μM cis): 1005 ±16 Hz | Dwell time closed state (RyR1; Efavirenz 12.50 μM cis): 0.53 ± 0.46 | Dwell time open state (RyR1; Efavirenz 12.50 μM cis): 1.03 ± 0.05 | Po (+30 mV) (RyR1; Efavirenz 12.50 μM cis): 0.69 ± 0.04 | Closed- maximally opened transitions (Hz) (RyR1; Efavirenz 20.00 μM cis): 1060 ±25 Hz | Dwell time closed state (RyR1; Efavirenz 20.00 μM cis): 0.57 ± 0.06 | Dwell time open state (RyR1; Efavirenz 20.00 μM cis): 0.99 ± 0.04 | Po (+30 mV) (RyR1; Efavirenz 20.00 μM cis): 0.67 ± 0.04 | Closed- maximally opened transitions (Hz) (RyR1; Efavirenz 31.20 μM cis): 1064 ±25 Hz | Dwell time closed state (RyR1; Efavirenz 31.20 μM cis): 1.53 ± 0.02 | Dwell time open state (RyR1; Efavirenz 31.20 μM cis): 0.73 ± 0.06 | Po (+30 mV) (RyR1; Efavirenz 31.20 μM cis): 0.38 ± 0.01 | Closed- maximally opened transitions (Hz) (RyR1; Efavirenz […] cis): 1125 ±24 Hz | Dwell time closed state (RyR1; Efavirenz […] cis): 4.91 ± 0.43 | Dwell time open state (RyR1; Efavirenz […] cis): 0.61 ± 0.07 | Po (+30 mV) (RyR1; Efavirenz […] cis): 0.08 ± 0.01 | effect on Po of RyR1 of concentrations lower than 240 nM (RyR1; up to 5 minutes after cis addition): no effect | Hill slope of displacement curve [1]: 1.6 | concentrations that enhanced [^3H]ryanodine binding to RyR1 ([1]; 2 hr at 37°C): 1 to 10 nM | effect on ATP-dependent Ca^2+ transport by SERCA1 (SERCA1 [2]): no effect | Ca^2+ transient in C2C12 cells pretreated with 50 μM ryanodine for 20 min [3]: attenuated Ca^2+ transient | duration of the global Ca^2+ transient ([3]; 6 μM): about 90 sec | effect on plasma membrane of C2C12 cells ([3]; 6 μM): blebbing | mean peak amplitude of the Ca^2+ transient [3, 7]: 3.9 ± 0.3 f.u. | rate of Ca^2+ rise [3, 7]: 0.14 ± 0.01 f.u./sec | rate of Ca^2+ transient decay [3, 7]: 0.04 ± 0.00 f.u./sec | response to a second dose in previously exposed C2C12 cells ([3]; second dose 6 μM): did not elicit a second Ca^2+ transient | fraction dissolved in ethanol/water (1:1) [4]: 6.3% | stock concentration in ethanol/water (1:1) [4]: 1.8 mM | effect on ATPase activity of SERCA1 (SERCA1 [5]; 0 – 20 μM, 20 min at 37°C, with and without A23187): did not show any significant effect | plasma Cmax [6]: ~ 2.5 μg/ml | Cmax ([6]; read-out: plasma Cmax): ~8 µM

CC(C)c1nc(CN(C)C(=O)N[C@H](C(=O)N[C@@H](Cc2ccccc2)C[C@H](O)[C@H](Cc2ccccc2)NC(=O)OCc2cncs2)C(C)C)cs1 [RTV, ritonavir]
increase in Po of RyR1 (RyR1; 720 nM cis RTV): three-fold | Po of RyR1 (RyR1; 3.2 μM cis RTV): 0.15 ± 0.02 | conductance of reduced conductance state R’2 (RyR1; 3.2 μM cis RTV): 599 ± 24 pS | current amplitude of RyR1 (R’2) (RyR1; 3.2 μM cis RTV): 84 % of maximum | reduction of current amplitude of RyR1 (RyR1; 3.2 μM cis RTV): 16% | current amplitude of RyR1 (R’2) (RyR1; 31.2 μM cis RTV): 84 % of maximum | Po of RyR1 (RyR1; 31.2 μM cis RTV, +30 mV): 0.92 ± 0.01 | Close - maximally opened transitions (Hz) (RyR1; Ritonavir 2.50 μM cis): 998 ± 89 Hz | Dwell time closed state (RyR1; Ritonavir 2.50 μM cis): 1.01 ± 0.22 ms | Dwell time open state (RyR1; Ritonavir 2.50 μM cis): 0.68 ± 0.06 ms | Po (+30 mV) (RyR1; Ritonavir 2.50 μM cis): 0.29 ± 0.03 | Close - maximally opened transitions (Hz) (RyR1; Ritonavir 5.00 μM cis): 762 ± 45 Hz | Dwell time open state (RyR1; Ritonavir 5.00 μM cis): 1.22 ± 0.15 ms | Po (+30 mV) (RyR1; Ritonavir 5.00 μM cis): 0.07 ± 0.04 | Close - maximally opened transitions (Hz) (RyR1; Ritonavir 12.50 μM cis): 828 ± 40 Hz | Dwell time open state (RyR1; Ritonavir 12.50 μM cis): 1.64 ± 0.03 ms | Po (+30 mV) (RyR1; Ritonavir 12.50 μM cis): 0.11 ± 0.03 | Close - maximally opened transitions (Hz) (RyR1; Ritonavir 20.00 μM cis): 848 ± 37 Hz | Dwell time closed state (RyR1; Ritonavir 20.00 μM cis): 10.57 ± 1.24 ms | Dwell time open state (RyR1; Ritonavir 20.00 μM cis): 1.01 ± 0.06 ms | Po (+30 mV) (RyR1; Ritonavir 20.00 μM cis): 0.11 ± 0.02 | Close - maximally opened transitions (Hz) (RyR1; Ritonavir 31.20 μM cis): 880 ± 30 Hz | Dwell time closed state (RyR1; Ritonavir 31.20 μM cis): 0.72 ± 0.09 ms | Dwell time open state (RyR1; Ritonavir 31.20 μM cis): 1.13 ± 0.09 ms | Po (+30 mV) (RyR1; Ritonavir 31.20 μM cis): 0.92 ± 0.01 | Close - maximally opened transitions (Hz) (RyR1; Ritonavir […] cis): 773 ± 47 Hz | Dwell time closed state (RyR1; Ritonavir […] cis): 4.25 ± 0.11 ms | Dwell time open state (RyR1; Ritonavir […] cis): 0.35 ± 0.02 ms | Po (+30 mV) (RyR1; Ritonavir […] cis): 0.07 ± 0.01 | effect on Po of RyR1 of concentrations lower than 720 nM (RyR1; up to five minutes after addition): did not elicit changes in the Po | maximum percent enhancement of [^3H]ryanodine binding over control ([1]; 6.7 nM [^3H]ryanodine, 2 hr at 37°C): 62.3 ± 6.2% | concentrations that enhanced [^3H]ryanodine binding to RyR1 ([1]; 2 hr at 37°C): 1 to 60 nM | effect on ATP-dependent Ca^2+ transport by SERCA1 (SERCA1 [2]): dose-dependently inhibited | Ca^2+ transient in C2C12 cells pretreated with 50 μM ryanodine for 20 min [3]: attenuated the amplitude | duration of the Ca^2+ transient ([3]; 3 μM): about 20 sec | effect on plasma membrane of C2C12 cells ([3]; 3 μM): blebbing | rate of decay of the Ca^2+ transient, times faster than that of EFV ([3]; 3 μM): 3 x | mean rate of Ca^2+ rise [3, 8]: 0.54 ± 0.06 f.u./sec | peak amplitude of the Ca^2+ transient [3, 8]: 4.3 ± 0.2 f.u | response to a second dose in previously exposed C2C12 cells ([3]; second dose 3 μM): triggered a second Ca^2+ transient | fraction dissolved in ethanol/water (1:1) [4]: 1.5% | stock concentration in ethanol/water (1:1) [4]: 0.39 mM | effect on ATPase activity of SERCA1 (SERCA1 [5]; 0.25 to 20 μM, presence or absence of A23187): dose-dependently decreased

Source: paper PMC8019157 (Antiviral research, 2021)
